A word on the melting point: it is the temperature of the solid-liquid transition.

Structures are written as SMILES. Where a name gives a salt, the structure may show the parent alone. Read-outs that look alike come from different tables or passages of the source.

The test system of data set [1] is primary endothelial cells (HUVEC, human umbilical vein endothelial cells). Description: Growth inhibition in HUVEC. The format is cell-based. Conditions: for IC50: 72 h.
The test system of data set [2] is BRAF-mutant melanoma (518A2). Description: Growth inhibition (MTT) in 518A2 melanoma cells. The format is cell-based, human.
The test system of data set [3] is resistant colon (HT-29) cell line. Description: Growth inhibition (MTT) in HT-29 colon cancer cells. It counts as cell-based, human.
Data set [4] has as its system resistant breast (MCF-7/Topo) cell line. Kind of data set: Growth inhibition in MCF-7/Topo breast cancer cells. It counts as cell-based.
The next data set addresses T1, recombinant human HDAC6 (Homo sapiens, UniProt Q9UBN7).
T1 sequence (Q9UBN7 1-1215): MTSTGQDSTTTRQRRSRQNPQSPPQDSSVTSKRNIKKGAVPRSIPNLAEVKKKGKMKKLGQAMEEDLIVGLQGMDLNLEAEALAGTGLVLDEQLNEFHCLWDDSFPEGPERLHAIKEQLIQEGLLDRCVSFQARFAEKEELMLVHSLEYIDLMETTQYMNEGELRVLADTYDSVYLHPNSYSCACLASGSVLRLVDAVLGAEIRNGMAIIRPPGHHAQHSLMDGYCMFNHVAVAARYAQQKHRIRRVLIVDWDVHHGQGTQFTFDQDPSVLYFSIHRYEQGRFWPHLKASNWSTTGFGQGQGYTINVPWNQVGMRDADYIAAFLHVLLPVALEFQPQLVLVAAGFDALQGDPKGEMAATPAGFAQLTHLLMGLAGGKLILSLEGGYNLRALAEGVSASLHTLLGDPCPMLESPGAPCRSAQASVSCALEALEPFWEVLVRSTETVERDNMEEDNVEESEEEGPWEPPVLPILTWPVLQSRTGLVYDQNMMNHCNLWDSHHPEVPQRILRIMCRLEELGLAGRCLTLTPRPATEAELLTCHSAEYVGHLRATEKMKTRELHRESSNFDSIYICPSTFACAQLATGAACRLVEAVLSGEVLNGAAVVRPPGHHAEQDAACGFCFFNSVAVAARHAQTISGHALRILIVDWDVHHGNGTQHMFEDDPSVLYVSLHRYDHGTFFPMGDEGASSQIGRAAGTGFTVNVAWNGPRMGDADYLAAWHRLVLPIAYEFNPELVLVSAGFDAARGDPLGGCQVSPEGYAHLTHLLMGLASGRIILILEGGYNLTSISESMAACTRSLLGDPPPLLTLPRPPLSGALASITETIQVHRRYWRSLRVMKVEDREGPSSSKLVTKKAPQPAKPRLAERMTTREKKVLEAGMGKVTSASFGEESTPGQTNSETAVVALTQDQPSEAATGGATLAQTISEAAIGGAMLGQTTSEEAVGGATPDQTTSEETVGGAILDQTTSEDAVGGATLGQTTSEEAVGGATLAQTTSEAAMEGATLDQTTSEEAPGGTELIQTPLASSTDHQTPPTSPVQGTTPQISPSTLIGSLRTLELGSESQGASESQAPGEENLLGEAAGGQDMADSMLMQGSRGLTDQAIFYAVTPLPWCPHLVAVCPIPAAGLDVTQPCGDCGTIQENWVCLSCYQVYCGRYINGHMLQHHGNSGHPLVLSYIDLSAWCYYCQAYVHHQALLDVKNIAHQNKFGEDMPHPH
Description: Fluorescence-based HDAC activity assay, recombinant HDAC6.

The next data set relates to 518A2 melanoma cells. Description: Western blot of 518A2 cell lysates: caspase-9 cleavage and histone H2B acetylation. It counts as cell-based, human. The conditions noted are these: 518A2 cells; for acetylation of histone proteins (H2B) and alpha-tubulin after drug treatment: Western blot. How it is done:
Western blot analysis of 518A2 cell lysates after drug treatment (3-24 h).
Background: Immunoblotting shows a protein as a band on a membrane.

The subject of data set [5] is hybrid endothelial cells (Ea.hy926). Kind of data set: Growth inhibition in Ea.hy926 cells. It counts as cell-based. Conditions: for IC50: Homo sapiens, EA.hy 926, 72 h.
The test system of data set [6] is non-malignant fibroblasts (CF, chicken fibroblasts). Description: Growth inhibition in chicken fibroblasts. Conditions: Gallus gallus, Fibroblast, 72 h. The format is cell-based.
Another data set addresses recombinant human HDAC1 (Homo sapiens, UniProt Q13547). Description: Fluorescence-based HDAC activity assay, recombinant HDAC1. Conditions: for fold less efficacious than vorinostat on HDAC1: relative to vorinostat IC50.
For data set [7], the system named is HDAC active isolates from HeLa cytosolic extract. Kind of data set: Fluorescence-based HDAC activity assay, HeLa cytosolic extract. The conditions noted are these: for IC50: read-out: HDAC inhibition IC50, HeLa cytosolic extract, 1 μg extract, 25 μM Fluor-de-Lys substrate, 60 min.
Description: (§1) Briefly, cell pellets from mass cultures were resuspended and incubated in cell extraction buffer (20 mM HEPES, 10 mM KCl, 0.1 mM EDTA, 0.1 mM EGTA, 1.5 mM MgCl2, 0.5 mM DTT) containing 0.1% Triton X-100 to lyse cell membranes and leave intact nuclei. After centrifugation (3,000 g, 2 min), the supernatant containing cytosolic proteins was aspirated from the nuclei pellet and the protein concentration of the cytosolic fraction was determined by a standard Bradford assay (Pierce/Thermo Scientific).
(§2) A fluorescence-based HDAC activity assay was used to assess the compound specificity for distinct HDAC classes. […] The Fluor-de-Lys substrate used allows to measure broad-spectrum HDAC activity from extracts or recombinant protein.
The subject of data set [8] is acetylated lysine residues in alpha-tubulin, 518A2 melanoma cells. Description: Immunoblot for acetylated alpha-tubulin in 518A2 cells. The conditions noted are these: […] or 5 μM, 24 h, versus SAHA 5 μM. The format is cell-based, human. From the text:
Cell lysates were subjected to gel electrophoresis and immunoblotting for acetylated lysine residues in alpha-tubulin (55 kDa).

The test system of data set [9] is HDAC active isolates from HeLa nuclear extract. Conditions: 0.5 μg extract, 25 μM Fluor-de-Lys substrate, 60 min; read-out: HDAC inhibition IC50, HeLa nuclear extract (values from Mahal et al. 2015); cited from earlier work.
The test system of data set [10] is resistant cervix carcinoma (KB-V1/Vbl) cell line. Description: Growth inhibition in KB-V1/Vbl cervix carcinoma cells. The format is cell-based. Conditions: Homo sapiens, 72 h, read-out: IC50 KB-V1/Vbl.
In data set [11] the test system is HDAC active isolates from HeLa nuclear extract. Description: Fluorescence-based HDAC activity assay, HeLa nuclear extract. Conditions: read-out: HDAC inhibition IC50, HeLa nuclear extract; 0.5 μg extract, 25 μM Fluor-de-Lys substrate, 60 min.
Description: as §1, §2
The nature of the next data set: Tolerance in Balb/c mice. It counts as in vivo. The conditions noted are these: two Balb/c mice. From the text:
FIG. 8: Tolerance of Et-Animacroxam (compound 3) in two Balb/c mice (x-axis: day 1-7; y-axis: weight in gram).

The test system of data set [12] is 1411HP xenograft (Cisplatin-resistant testicular cancer). Kind of data set: 1411HP xenograft model. It counts as in vivo, mouse. Conditions: 150 mg/kg i.p. How it is done:
FIG. 9: Activity of Et-Animacroxam (compound 3) in the 1411HP xenograft model (left: before treatment; right: 24 h after treatment with 150 mg/kg i.p. of Et-Animacroxam).

Data set [13] concerns EGF-stimulated MCF-7/Topo cells. Description: Matrigel-Transwell-Migration Assay. The format is cell-based. Conditions: EGF 200 ng/mL, 48 h. How it is done: FIG. 6: Influence of imidazole-based HDAC inhibitors Et-Animacroxam (compound 3) and Bimacroxam (compound 4) on resistance factors in tumor cell lines. A: Western blot analysis of Akt-phosphorylation (phospho-Akt) in 518A2 and MCF-7/Topo cell lysates (10 μg protein each) after 6 h of incubation. […] The amount of invasive cells was determined after calcein treatment via fluorescence measurement and DMSO-treated controls without EGF were set to 100%.

Chain of recombinant human HDAC1 (Q13547 whole entry): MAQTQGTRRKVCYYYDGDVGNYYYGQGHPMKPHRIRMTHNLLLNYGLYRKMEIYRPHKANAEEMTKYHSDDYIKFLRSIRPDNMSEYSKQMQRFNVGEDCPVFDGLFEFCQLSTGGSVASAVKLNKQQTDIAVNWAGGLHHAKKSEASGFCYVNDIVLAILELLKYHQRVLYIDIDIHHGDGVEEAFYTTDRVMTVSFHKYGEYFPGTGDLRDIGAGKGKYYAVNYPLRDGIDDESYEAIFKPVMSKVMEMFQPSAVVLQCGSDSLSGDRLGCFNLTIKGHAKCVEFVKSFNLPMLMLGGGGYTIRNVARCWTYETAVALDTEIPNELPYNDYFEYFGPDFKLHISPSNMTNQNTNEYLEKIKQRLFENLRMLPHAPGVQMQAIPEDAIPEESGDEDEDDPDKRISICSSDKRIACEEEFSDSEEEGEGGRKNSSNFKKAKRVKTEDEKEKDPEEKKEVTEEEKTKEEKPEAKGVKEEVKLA
Description for recombinant human HDAC1: as §1, §2
Description for recombinant human HDAC6: as §2

Take `COc1ccc(-c2ncn(C)c2-c2ccc(C=CC(=O)NO)cc2)cc1` [Compound Nor-3, 1-Methyl-4-(4-methoxyphenyl)-5-(4′-hydroxyaminocarbonylethenyl-phenyl)-imidazole×HCl]: the IC50 is 0.83 ± 0.26 µM in data set [1], 1.45 ± 0.07 µM in data set [2] (72 h) and 0.71 ± 0.06 µM in data set [3] (72 h).

As for `Cn1cnc(-c2ccccc2)c1-c1ccc(/C=C/C(=O)NO)cc1` [Compound 4, 1-Methyl-4-phenyl-5-(4′-hydroxyaminocarbonylethenyl-phenyl)-imidazole×HCl], the IC50 is 15.3 ± 1.4 µM in data set [4] (Homo sapiens, MCF7/Topo, 72 h; read-out: IC50 MCF-7/Topo); 0.55 ± 0.29 µM in [1] (Homo sapiens, HUVEC); 0.107 ± 0.023 µM on recombinant human HDAC6; 0.16 ± 0.03 µM in data set [5]; more than 50 µM in [6]; 0.028 ± 0.011 µM on recombinant human HDAC1. Moreover, the IC50 in data set [7] was 0.132 ± 0.014 µM; in [9], 0.234 µM; in data set [2] (Homo sapiens, 518A2, 72 h) it was 2.76 ± 0.62 µM; in data set [10], 5.04 ± 1.82 µM; in [3] (Homo sapiens, HT-29, 72 h), 1.33 ± 0.07 µM. In addition, the “fold stronger in primary endothelial cells compared with 3 and SAHA” value in data set [1] (HUVEC) came out at 12 fold. In addition, in the data set with 518A2 melanoma cells, the “acetylation of histone proteins (H2B) and alpha-tubulin after drug treatment” value is recorded as “vastly acetylated”. Besides, in data set [5] (Ea.hy926), the “fold stronger in the Ea.hy926 cell line compared with 3 and SAHA” value turned out to be 10 fold. Further, the “fold less efficacious than vorinostat on HDAC1” value on recombinant human HDAC1 was “ca. twofold”. Besides, in [8], the acetylated alpha-tubulin entry was “much higher extent compared with cells treated with SAHA”.

In the case of `CCn1cnc(-c2ccc(OC)cc2)c1-c1ccc(/C=C/C(=O)NO)cc1` [Compound 3, 1-Ethyl-4-(4-methoxyphenyl)-5-(4′-hydroxyaminocarbonylethenyl-phenyl)-imidazole×HCl], the IC50 in data set [11] was 0.504 ± 0.024 µM; in data set [4] (Homo sapiens, MCF7/Topo, 72 h, read-out: IC50 MCF-7/Topo), 5.6 ± 0.33 µM; in data set [1] (Homo sapiens, HUVEC) it was 1.26 ± 0.45 µM; at recombinant human HDAC6, 0.066 µM; in [5], 0.99 ± 0.13 µM; in [6], more than 50 µM. The IC50 on recombinant human HDAC1 turned out to be 0.187 ± 0.037 µM; in data set [7], 0.036 ± 0.014 µM; in data set [2] (Homo sapiens, 518A2, 72 h) it was 0.95 ± 0.19 µM; in data set [10], 2.91 ± 0.98 µM; in [3] (Homo sapiens, HT-29, 72 h) it was 0.45 ± 0.03 µM. The “apoptosis induction (caspase-9-cleavage)” value in the data set with 518A2 melanoma cells (3-24 h) is “leads to apoptosis induction (caspase-9-cleavage)”. Also, the “acetylation of histone proteins (H2B) and alpha-tubulin after drug treatment” value in the data set with 518A2 melanoma cells is given as “vastly acetylated”. Besides, the signs of toxicity result in the data set “Tolerance in Balb/c mice” (2×20 mg/kg i.p. on two consecutive days) is reported as “no signs of toxicity”. In addition, the “weight of treated mice” value in the data set “Tolerance in Balb/c mice” (2×20 mg/kg i.p., day 1-7) was “roughly remained the same”. The “diameter of bigger vessels of the tumor body” value in data set [12] (after 24 h) is “reduced significantly”. For the same compound, the visible side effects result in data set [12] (mouse) is listed as “did not cause any visible side effects”. In addition, in [13], the “invasiveness of MCF-7/Topo cells” value is “significantly reduced invasiveness”. Further, on recombinant human HDAC1, the “fold less efficacious than vorinostat on HDAC1” value is given as “ca. tenfold”. Moreover, the “times more active than vorinostat in the cytosolic fraction” value in [7] (HeLa cytosolic extract) was “ca. four”. Besides, in data set [7] (HeLa cytosolic vs nuclear extract), the “times more HDAC inhibiting in the cytosolic than in the nuclear fraction” value is reported as “ca. 14 times”. In addition, the acetylated alpha-tubulin result in data set [8] was “much higher extent compared with cells treated with SAHA”.

On to `Cn1cnc(-c2ccccc2)c1-c1cccc(C=CC(=O)NO)c1` [Compound iso-4, 1-Methyl-4-phenyl-5-(3′-hydroxyaminocarbonylethenyl-phenyl)-imidazole×HCl], for which the values for the IC50 in data set [2] (72 h) and in data set [3] (72 h) were 2.23 ± 0.06 µM and 2.8 ± 0.07 µM, respectively.

In the case of `Cn1cnc(-c2ccc(F)cc2)c1-c1ccc(C=CC(=O)NO)cc1` [Compound F-3, 1-Methyl-4-(4-fluorophenyl)-5-(4′-hydroxyaminocarbonylethenyl-phenyl)-imidazole×HCl], the IC50 in data set [2] (72 h) turned out to be 1.94 ± 0.04 µM; in data set [3] (72 h), 1.45 ± 0.06 µM.

In turn, `Cn1cnc(-c2ccccc2)c1-c1ccc(/C=C/C(=O)NO)cc1` (as salt: HCl) [Compound 4, 1-Methyl-4-phenyl-5-(4′-hydroxyaminocarbonylethenyl-phenyl)-imidazole×HCl] yielded a melting point of 189 to 190 °C.

The record behind these values is patent US9868750B2, “4,5-diarylimidazole derivatives as HDAC inhibitors” (CHARITÉ—UNIVERSITÄTSMEDIZIN BERLIN, priority 2014, dated 2018).
